Measured values as given in patent US20080090881A1, “TREATMENT OF DIABETES WITH THIAZOLIDINEDIONE AND METFORMIN” (SmithKline Beecham plc, priority 1997, published 2008).

Assay: clinical
Settings: male, human, plasma, po

Tmax [h]	half-life [h]	Structure (SMILES)
3	–	CN(C)C(=N)N=C(N)N [M, 1,1-Dimethylbiguanidine, reference compound]
3	3.24	CN(CCOc1ccc(CC2SC(=O)NC2=O)cc1)c1ccccn1 (stereo not drawn) [Compound (I), 5-[4-[2-(N-methyl-N-(2-pyridyl)amino)ethoxy]benzyl]thiazolidine-2,4-dione]
